# Publication PMC3773049 (Journal of the American Chemical Society, 2013)
# Where two headings read alike, the source gives them in different places.
# What was measured:
# human c-20S β5c = human c-20S β5c (Homo sapiens, UniProt P20618+P28074); assay: Inhibition of human constitutive 20S β5c; type: biochemical; settings: read-out: Ki μM β5c; Table 2
# [1] = over 22 hours
# human i-20S β5i = human i-20S β5i (Homo sapiens, UniProt P20618+P28062); assay: Inhibition of human immunoproteasome β5i; type: biochemical; settings: Table 2
# Mtb20SOG [2] = target: T1, Mtb20SOG (Mycobacterium tuberculosis, UniProt P9WHT9)
# T1 sequence (P9WHT9 58-291): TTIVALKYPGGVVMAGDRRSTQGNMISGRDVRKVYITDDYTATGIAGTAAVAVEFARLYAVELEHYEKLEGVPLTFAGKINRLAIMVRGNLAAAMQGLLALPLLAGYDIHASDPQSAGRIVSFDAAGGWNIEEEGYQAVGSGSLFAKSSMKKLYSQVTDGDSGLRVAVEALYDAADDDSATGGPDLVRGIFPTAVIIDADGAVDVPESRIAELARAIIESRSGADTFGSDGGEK
# [3] = system: mycobacterial proteasome in M. bovis strain BCG; type: cell-based; settings: for protection of mycobacterial proteasome from HT1171: then HT1171 25 μM 1 hour
# Mtb20SOG [4] = target: T1, Mtb20SOG; remark: listed apart in the source
# Mtb20SOG [5] = target: Mtb20SOG
Structure (SMILES),Ki (human c-20S β5c),stability in human plasma [1],Ki(β5i)/Ki(Mtb) (human i-20S β5i),Ki (human i-20S β5i; read-out: Ki μM β5i),apparent kon (Mtb20SOG [2]),dissociation rate constant koff (Mtb20SOG [2]),mode of inhibition of Mtb20SOG (Mtb20SOG [2]),Ki (Mtb20SOG [2]; read-out: Ki^app calculated from koff/kon),Ki (Mtb20SOG [2]; read-out: apparent Ki^app against Mtb20SOG),protection of mycobacterial proteasome from HT1171 ([3]; DPLG-2 1 μM 4 hours),protection of mycobacterial proteasome from HT1171 ([3]; DPLG-2 10 μM 4 hours),protection of mycobacterial proteasome from HT1171 ([3]; DPLG-2 50 μM 4 hours),increase in potency against Mtb20SOG compared to ML9 (Mtb20SOG [4]),Ki (Mtb20SOG [4]; read-out: Ki μM Mtb20SOG),Ki(β5c)/Ki(Mtb) (Mtb20SOG [5]),species selectivity for Mtb20SOG over human constitutive proteasome β5 subunit (Mtb20SOG [5]),"inhibition of proteasomes in intact BCG ([3]; HT1171 25 μM, 1 hour, absence of DPLG-2)"
CCN(CC)C(=O)C[C@H](NC(=O)CCc1ccccc1)C(=O)N[C@@H](Cc1ccc(F)cc1)C(=O)NCc1cccc2ccccc12 [DPLG-2],70 µM,stable,3650,54.7 µM,5.7 ± 0.2 × 10^4 M^−1s^−1,0.0015 ± 0.0001 s⁻¹,time-dependent manner,26.3 nM,24.2 ± 0.9 nM,HT1171 inhibited the proteasomes irreversibly,able to shield the mycobacterial proteasome active sites from HT1171,able to shield the mycobacterial proteasome active sites from HT1171,4 fold,0.015 µM,4670,4670 fold,
"Cc1sc(-c2nsc(=O)o2)cc1[N+](=O)[O-] [HT1171, reference compound]",,,,,,,,,,,,,,,,,inhibited the proteasomes irreversibly
